The source of these data is PMC10455244, “Alpha-Mangostin: A Potent Inhibitor of TRPV3 and Pro-Inflammatory Cytokine Secretion in Keratinocytes” (International Journal of Molecular Sciences, 2023).

The test system of one data set is TRPV3. The conditions noted are these: read-out: IC50 (µM), channel inhibited TRPV3; cited from earlier work.
A further data set deals with TRPV1. The following applies: read-out: IC50 (µM), channel inhibited TRPV1; cited from earlier work.
The test system of the next data set is TRPV2. Set-up: method as in PMID 28333079. The conditions noted are these: read-out: IC50 (µM), channel inhibited TRPV2; cited from earlier work.
In the next data set the test system is IL-6. The data set can be described thus: ELISA, carvacrol-induced IL-6 release in NHEK. Type of data set: cell-based, human. The following applies: 300 µM carvacrol alone, 24 h, not significant. The text has this:
(§1) Constitutive activation of TRPV3 due to continuous stimulation or the presence of Olmsted mutations causes noticeable skin inflammation due to the increased secretion of pro-inflammatory cytokines from the keratinocytes. Besides, in atopic dermatitis (AD), cytokine release from keratinocytes contributes to the inflammatory environment, which drives many characteristic AD symptoms. Therefore, we determined the effect of TRPV3 activation on cytokine release instead of TRPV3 expression and evaluated whether alpha-mangostin suppressed TRPV3-mediated cytokine secretion in normal human keratinocytes. The levels of secreted cytokines (interleukin (IL)-6, IL-8, and tumor necrosis factor-alpha (TNF-α)) were measured using enzyme-linked Immunosorbent assay (ELISA) kits due to their high sensitivity and quantitation ability. The cells were induced with 300 µM carvacrol, with or without 1 µM alpha-mangostin, and 10 µM 74a.
(§2) Figure 5 Alpha-mangostin (α-MG) inhibited carvacrol-induced cytokine release in NHEK cells and rescued carvacrol-induced cell death. (A) Alpha-mangostin inhibited the carvacrol-induced release of IL-8 and IL-6 in NHEK. Cells were induced by 300 µM carvacrol with or without either 1 µM alpha-mangostin or 10 µM 74a for 24 h before the ELISA assay. (B) Alpha-mangostin reduced cell death caused by carvacrol in human keratinocytes. […]

The test system of another data set is TRPV3 (WT). The data set can be described thus: in vitro. The class given is cell-based, human. The conditions noted are these: human.
The next data set relates to IL-8. Put plainly: ELISA, carvacrol-induced IL-8 release in NHEK. Type of data set: cell-based, human. The conditions noted are these: 300 µM carvacrol alone, 24 h.
From the text: as §1, §2
(In general: In an ELISA, binding on a coated surface is turned into a signal by an enzyme label.)

A further data set relates to TNF-α. The data set can be described thus: ELISA, TNF-α release in NHEK. The class given is cell-based, human. The conditions noted are these: 300 µM carvacrol alone, 24 h.
From the text: as §1, §2

The next data set addresses T1, TRPA1 (Homo sapiens, UniProt O75762).
T1 construct: host or cells: HEK 293T (transient transfection)
The following applies: read-out: IC50 (µM), channel inhibited TRPA1; cited from earlier work.

T1 sequence (O75762 whole entry, species assumed): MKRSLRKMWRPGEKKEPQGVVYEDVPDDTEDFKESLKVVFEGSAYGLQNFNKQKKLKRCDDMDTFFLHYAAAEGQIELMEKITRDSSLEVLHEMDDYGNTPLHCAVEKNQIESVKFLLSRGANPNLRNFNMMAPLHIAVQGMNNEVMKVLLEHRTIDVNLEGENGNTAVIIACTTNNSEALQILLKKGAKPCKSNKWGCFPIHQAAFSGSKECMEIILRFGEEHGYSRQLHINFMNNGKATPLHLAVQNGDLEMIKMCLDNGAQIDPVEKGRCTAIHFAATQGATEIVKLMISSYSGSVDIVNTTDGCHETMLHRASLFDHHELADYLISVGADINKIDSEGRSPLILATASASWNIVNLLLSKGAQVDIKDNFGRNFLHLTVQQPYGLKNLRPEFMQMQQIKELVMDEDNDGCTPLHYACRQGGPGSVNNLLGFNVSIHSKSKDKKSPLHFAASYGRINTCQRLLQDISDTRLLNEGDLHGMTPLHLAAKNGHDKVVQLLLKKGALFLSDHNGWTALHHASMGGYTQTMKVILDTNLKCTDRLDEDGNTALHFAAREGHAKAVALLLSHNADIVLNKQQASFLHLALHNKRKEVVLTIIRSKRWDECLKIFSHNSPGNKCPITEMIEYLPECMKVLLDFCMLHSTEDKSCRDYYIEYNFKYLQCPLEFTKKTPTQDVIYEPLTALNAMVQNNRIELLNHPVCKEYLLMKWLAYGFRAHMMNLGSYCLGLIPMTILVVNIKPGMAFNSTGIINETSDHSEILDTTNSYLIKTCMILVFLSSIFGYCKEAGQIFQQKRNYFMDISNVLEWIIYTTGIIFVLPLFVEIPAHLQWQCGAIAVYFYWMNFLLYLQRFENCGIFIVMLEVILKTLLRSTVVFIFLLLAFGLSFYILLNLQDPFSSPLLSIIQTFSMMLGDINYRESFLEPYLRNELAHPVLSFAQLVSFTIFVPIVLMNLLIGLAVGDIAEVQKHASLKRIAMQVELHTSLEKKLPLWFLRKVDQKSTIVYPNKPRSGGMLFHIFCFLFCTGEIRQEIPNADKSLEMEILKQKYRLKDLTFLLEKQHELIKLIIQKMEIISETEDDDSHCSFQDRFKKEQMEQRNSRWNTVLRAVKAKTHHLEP

For `COc1c(O)cc(O)c2c(=O)c3cccc(O)c3n(C)c12` [Citrusinine II], the IC50 with TRPV3 was 12.4 ± 1.86 µM.

Take `COc1ccc2ccc(=O)oc2c1CC=C(C)C` [Coumarin osthole]: in the data set on TRPV3, the IC50 was 37 ± 1.9 µM. For `O=C(/C=C/c1ccc(O)c(O)c1)O[C@@H]1CC(O)(C(=O)O)C[C@@H](OC(=O)/C=C/c2ccc(O)c(O)c2)C1O` (stereo partly shown) [Isochlorogenic acid A], the IC50 in the data set on TRPV3 is 2.7 ± 1.3 µM. For the compound `O=C(C=Cc1ccc(O)c(O)c1)OC1CC(O)(C(=O)O)CC(O)C1OC(=O)C=Cc1ccc(O)c(O)c1` (stereo not shown) [Isochlorogenic acid B], the IC50 with TRPV3 is 0.9 ± 0.3 µM. `CCC=CC1CCC2(CC3CCC4C(C(=O)OCCCCCCCCCCCCCCCC(=O)N(CCCN)CCCCN)C5(CCCC(C)O5)NC(=[N+]34)N2)O1` (stereo not shown) [Monanchomycalin B]: the IC50 with TRPV1 is 6.02 ± 0.36 µM; with TRPV3 it was 3.25 ± 0.6 µM; in the data set on TRPV2 it was 2.84 ± 1.01 µM. `C[C@@H]1O[C@@H](O[C@@H]2[C@@H](O)[C@H](OCCc3ccc(O)c(O)c3)O[C@H](CO)[C@H]2OC(=O)/C=C/c2ccc(O)c(O)c2)[C@H](O)[C@H](O)[C@H]1O` [Verbascoside]: the IC50 in the data set on TRPV3 was 14.1 ± 3.3 µM. For `Cc1ccc(C(C)C)cc1O` [carvacrol, reference compound], the “Effect on IL-6 secretion” value in the data set on IL-6 was “slight increase”. The compound also had a viability at 24 h, 300 µM in the data set with TRPV3 (WT) of 75.6%. In addition, the “Effect on IL-8 release” value with IL-8 is given as “significantly stimulated”. The “Effect on TNF-α levels” value in the data set with TNF-α is “non-significant effect”.

In the case of Forsythoside B, in the data set on TRPV3, the IC50 is 6.7 ± 0.7 µM. Regarding Pulchranin A, the IC50 at TRPA1 is 174 ± 7.4 µM; with TRPV1 it was 27.5 ± 1.4 µM; in the data set on TRPV3, 71.8 ± 9.4 µM. Pulchranin C: the IC50 on TRPA1 is greater than 200 µM; with TRPV1 it was 183 ± 27 µM; in the data set on TRPV3, greater than 200 µM.

As a reminder, the IC50 is the concentration that gives 50% inhibition. For orientation: viability means a read-out of living cells in per cent, often relative to untreated cells. Read a low viability as a greater loss of cells.
